Data from paper PMC5515971, “Utility of spherical human liver microtissues for prediction of clinical drug-induced liver injury” (Archives of Toxicology, 2017).
Read-outs that look alike come from different tables or passages of the source.

Key:
[1] = ref Chen et al 2016 / Chen et al 2011; cited from earlier work
[2] = system: primary human hepatocytes (PHH); assay: Cytotoxicity (cellular ATP, CellTiter-Glo) in 2D plated primary human hepatocytes, 48 h treatment; assay type: cell-based; conditions: for IC50: Hepatocyte, read-out: Geomean IC50;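 as to all read-outs here: 384-well plates, luminescence read-out, normalized to vehicle wells with 1% DMSO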
Description: Cryopreserved PHH (lot IZT) were thawed in InVitroGro HT™ thawing media at 37 °C, pelleted, and resuspended. Viable hepatocytes were counted by Trypan blue exclusion and plated in black-walled, BioCoat™ collagen 384-well plates at 13,000 cells/well in InVitroGro CP™ plating media supplemented with 1% Torpedo™ Antibiotic Mix and 5% fetal bovine serum and incubated overnight for 18 h. Cells were then treated with compounds for 48 h diluted in InVitroGro HI™ incubation media containing 1% Torpedo Antibiotic Mix, 10% fetal bovine serum, and 1% DMSO. […] Luminescence was determined on an EnVision™ Muliplate Reader (PerkinElmer, Waltham, MA, USA), and data were normalized to vehicle (1% DMSO) control wells.

[3] = cited from earlier work
[4] = system: 3D human liver microtissues (hLiMT); assay: Cytotoxicity (cellular ATP, CellTiter-Glo 2.0) in 3D human liver microtissues, 14 day repeat-dose treatment; conditions: for IC50: Homo sapiens, 336 h
[5] = cited from earlier work; for DILI category: clinical, from literature and product labels; for P/N (DILI positive / DILI negative): P = DILI severity categories 1, 2 and 3, N = categories 4 and 5
[6] = system: 3D human liver microtissues (hLiMT); assay: Cytotoxicity (cellular ATP) in 3D human liver microtissues, 5-6 days treatment; assay type: cell-based; conditions: Homo sapiens; hLiMT, 5/6 days, ATP content; read-out: IC50 SHORT;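 also: Hanging-drop spheroids, seven-point dilution series, re-dosed on day 3, CellTiter-Glo 2.0 luminescence, normalized to 0.5 or 1% DMSO vehicle controls on the same plate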
[7] = Clinical DILI severity categorization and DILI pattern; conditions: P = DILI severity categories 1, 2 and 3; N = categories 4 and 5
[8] = 2D primary human hepatocytes (lot IZT), 48 h treatment, total cellular ATP content
[9] = human Cmax total, used for IC50/Cmax
[10] = human total plasma Cmax, ref literature values
[11] = Hepatocyte, read-out: Geomean IC50 [µM]
[12] = Table 1, ref Garside et al. (2014)
[13] = clinical DILI severity category, 1-5
[14] = table S-4, ref Garside et al. 2014
[15] = table S-5, ref Garside et al. 2014

SMILES	FDA DILI Classification DILI severity score [1]	LTKB DILI classification [1]	IC50 [2, 8] [µM]	Cmax [3, 9] [nM]	Cmax [3, 10] [nM]	IC50 [4, 11] [µM]	DILI severity category [5, 12]	DILI severity category [5, 13]	DILI category ([5]; ref Garside et al. 2014)	DILI severity category [5, 14]	IC50 [6] [µM]	cytotoxicity IC50 detected ([2]; PHH 48 h, in words)	IC50 ([4]; read-out: IC50 LONG) [µM]	P/N (DILI positive / DILI negative) [7]	P/N (DILI positive / DILI negative) [5]	DILI severity category [5, 15]	change of IC50 with prolonged exposure ([4]; hLiMT 14 days versus 5-6 days)	classification at 50× MOS threshold ([4]; hLiMT 14 days)	IC50 ([2]; Homo sapiens, 48 h) [µM]
CN[C@@H]1[C@H](O)[C@H](NC)[C@H]2O[C@@]3(O)C(=O)C[C@@H](C)O[C@H]3O[C@@H]2[C@H]1O [Spectinomycin]	3	Ambiguous DILI concern	> 100	323000	323000	> 100	3: Low clinical DILI concern (N = 23)	3. Low Clinical DILI Concern	3. Low Clinical DILI Concern	3	100	–	–	–	–	–	–	–	–
COc1ccccc1Oc1c(NS(=O)(=O)c2ccc(C(C)(C)C)cc2)nc(-c2ncccn2)nc1OCCO [Bosentan]	7	most DILI concern	> 200	–	–	~93	1: Severe clinical DILI (N = 23)	1. Severe Clinical DILI	1. Severe Clinical DILI	1	100	no IC50 values were detected	93	–	–	–	–	–	–
NC(CO)C(=O)NNCc1ccc(O)c(O)c1O (stereo not shown) [Benserazide]	–	–	> 500	3890	3890	> 62.5	5: No DILI (N = 25)	5. No DILI	5. No DILI	–	–	–	–	N	N	–	–	–	–
CC(=O)N1CCN(c2ccc(OCC3COC(Cn4ccnc4)(c4ccc(Cl)cc4Cl)O3)cc2)CC1 (stereo not shown) [Ketoconazole]	8	most DILI concern	47.2	11300	11300	4.6	1: Severe clinical DILI (N = 23)	1. Severe Clinical DILI	1. Severe Clinical DILI	1	8.5	–	–	–	–	–	–	–	–
Fc1ccc([C@@H]2CCNC[C@H]2COc2ccc3c(c2)OCO3)cc1 [Paroxetine]	8	less DILI concern	15.3	200	200	12	2: High clinical DILI concern (N = 23)	2. High Clinical DILI Concern	2. High Clinical DILI Concern	2	21.3	–	–	–	–	–	–	–	–
Cc1ccccc1C(OCCN(C)C)c1ccccc1 (stereo not shown) [Orphenadrine]	0	no DILI concern	–	740	740	–	5: No DILI (N = 25)	5. No DILI	5. No DILI	–	–	–	–	N	N	5. No DILI	–	–	–
CC(C)C(=O)Nc1ccc([N+](=O)[O-])c(C(F)(F)F)c1 [Flutamide]	8	most DILI concern	73	5400	5430	25.7	1: Severe clinical DILI (N = 23)	1. Severe Clinical DILI	1. Severe Clinical DILI	1	12.5	–	–	–	–	–	higher IC50 value	–	–
O=C1CN(/N=C/c2ccc([N+](=O)[O-])o2)C(=O)N1 [Nitrofurantoin]	8	most DILI concern	–	21000	21000	–	2: High clinical DILI concern (N = 23)	2. High Clinical DILI Concern	2. High Clinical DILI Concern	2	100	–	–	–	–	–	–	–	–
[H]/N=C(/N)N/C(=N/[H])NCCc1ccccc1 [Phenformin]	–	–	5.1	630	630	< 12.5	3: Low clinical DILI concern (N = 23)	3. Low Clinical DILI Concern	3. Low Clinical DILI Concern	3	7.7	–	12.5	–	–	–	–	–	–
O=C1CC2(CCCC2)CC(=O)N1CCCCN1CCN(c2ncccn2)CC1 [Buspirone]	–	–	> 200	10	10	163	4: Enzyme elevations in clinic (N = 16)	4. Enzyme Elevations in Clinic	4. Enzyme Elevations in Clinic	–	–	–	–	N	N	–	–	not	–
CN(C)C(=N)N=C(N)N [Metformin]	0	less DILI concern	> 100	7740	7740	> 100	3: Low clinical DILI concern (N = 23)	3. Low Clinical DILI Concern	3. Low Clinical DILI Concern	3	100	–	–	–	–	–	–	–	–
[H]/N=C(/N)c1ccc(NCc2nc3cc(C(=O)N(CCC(=O)O)c4ccccn4)ccc3n2C)cc1 [Dabigatran]	–	–	–	370	370	> 50	4: Enzyme elevations in clinic (N = 16)	4. Enzyme Elevations in Clinic	4. Enzyme Elevations in Clinic	–	–	–	–	N	N	–	–	–	> 25
CC1=C(/C=C/C(C)=C/C=C/C(C)=C/C(=O)O)C(C)(C)CCC1 [Tretinoin]	3	Ambiguous DILI concern	> 100	1330	1330	> 17	3: Low clinical DILI concern (N = 23)	3. Low Clinical DILI Concern	3. Low Clinical DILI Concern	3	29.2	–	17	–	–	–	–	–	–
CN(C)C(=O)Oc1cccc([N+](C)(C)C)c1 [Neostigmine]	–	–	> 10	45	44.8	> 10	5: No DILI (N = 25)	5. No DILI	5. No DILI	–	–	–	–	N	N	–	–	–	–
O=C(NC1CCN(CCc2c[nH]c3ccccc23)CC1)c1ccccc1 [Indoramin]	–	–	> 50	290	290	> 50	5: No DILI (N = 25)	5. No DILI	5. No DILI	–	–	–	–	N	N	–	–	–	–
C#CCN(C)Cc1ccccc1 [Pargyline]	–	–	> 100	1000	1000	> 100	4: Enzyme elevations in clinic (N = 16)	4. Enzyme Elevations in Clinic	4. Enzyme Elevations in Clinic	–	–	–	–	N	N	4. Enzyme Elevations in Clinic	–	–	–
CN(Cc1cnc2nc(N)nc(N)c2n1)c1ccc(C(=O)N[C@@H](CCC(=O)O)C(=O)O)cc1 [Methotrexate]	3	most DILI concern	> 100	5000	5000	> 100	1: Severe clinical DILI (N = 23)	1. Severe Clinical DILI	1. Severe Clinical DILI	1	100	–	–	–	–	–	–	–	–
Cc1cc(CC(=O)O)n(C)c1C(=O)c1ccc(Cl)cc1 [Zomepirac]	–	–	> 1000	13700	13700	> 1000	5: No DILI (N = 25)	5. No DILI	5. No DILI	–	–	–	–	N	N	–	–	–	–
CN(C)CCC(c1ccc(Cl)cc1)c1ccccn1 (stereo not shown) [Chlorpheniramine]	0	no DILI concern	–	44	43.7	–	3: Low clinical DILI concern (N = 23)	3. Low Clinical DILI Concern	3. Low Clinical DILI Concern	3	100	–	–	–	–	–	–	–	–
